Assay results as given in PubChem BioAssay (NCI).
“And” between values parts separate entries of the source, which are not always exact repeats. Equal entries are not always repeated.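 48-hour exposure; five concentrations; linearly interpolated endpoints. GI50 = concentration required for 50% inhibition of growth. TGI marks complete inhibition of growth.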

Legend:
Test in all cases: NCI-60 cell line screen, 48 h
[1] = tested on: MOLT-4 leukemia
[2] = tested on: NCI-H226 lung
[3] = tested on: SF-268 CNS
[4] = tested on: CAKI-1 renal
[5] = tested on: MALME-3M melanoma
[6] = tested on: HCT-116 colon
[7] = tested on: SF-539 CNS
[8] = tested on: OVCAR-5 ovarian
[9] = tested on: UO-31 renal
[10] = tested on: RPMI-8226 leukemia

| Structure (SMILES) | TGI [1] | TGI [2] | TGI [3] | TGI [4] | TGI [5] | TGI [6] | TGI [7] | TGI [8] | TGI [9] | TGI [10] | GI50 [2] |
| --- | --- | --- | --- | --- | --- | --- | --- | --- | --- | --- | --- |
| Nc1nc(N)c(-c2ccccc2)c(C(=O)Nc2nccs2)n1 | > 100 µM | > 100 µM | > 100 µM | > 100 µM | > 100 µM | > 100 µM | > 100 µM | > 100 µM | > 100 µM |  |  |
| O=C1NC2(CCCCC2)C2=C1CCCCC2 | > 100 µM |  | > 100 µM | > 100 µM | > 100 µM | > 100 µM | > 100 µM | > 100 µM | > 100 µM |  |  |
| CC1CC2C(=O)N(c3ccccc3)C(=O)C2c2[nH]c3ccccc3c21 (configuration not stated) | > 100 µM |  | > 100 µM |  | > 100 µM |  | > 100 µM |  |  | > 100 µM |  |
| CCNC(=O)O/N=C1/C=C2CC[C@@H]3C(CC[C@@]4(C)C3CC[C@@H]4OC(=O)NCC)[C@@]2(C)CC1 (some centres not stated) | 5.44 µM |  |  | 16.9 µM |  | 12.2 µM | > 100 µM | 20 µM | 3.46 µM | 7.02 µM |  |
| Cc1c2cc[n+](C)cc2c(C)c2c1[nH]c1ccc(Oc3ccccc3)cc12 | > 43.7 µM and 12.7 µM | 28 µM and 8.75 µM | 14.7 µM and > 19.9 µM | > 100 µM |  | > 100 µM | 20.2 µM and 21 µM | > 42 µM and 29.9 µM | 40 µM and > 38.1 µM | 23.8 µM and 16.1 µM | 0.797 µM |
| O=C1COc2cc3c(cc2N1)SCC(=O)N3 | > 100 µM | > 100 µM | > 100 µM | > 100 µM | > 100 µM | > 100 µM | > 100 µM |  | > 100 µM | > 100 µM |  |
| COc1cc(COC(=O)NC(Cc2cccs2)C(=O)O)c([N+](=O)[O-])cc1OC (configuration not stated) | > 100 µM | > 100 µM | > 100 µM |  | > 100 µM | > 100 µM | > 100 µM | > 100 µM | > 100 µM | > 100 µM |  |
